Measurements reported in US10413505B1, “Pharmaceutical compositions and methods of using the same” (priority 2017, dated 2019).

Assay: Example 3 plasma pharmacokinetics, normal hepatic function vs hepatic impairment
Conditions: for AUC(0-t): AUClast (Geometric Least Squares Mean, ANOVA)
[1] = hepatic impairment, single intranasal 160 mg cocaine HCl, plasma
[2] = normal hepatic function, single intranasal 160 mg cocaine HCl, plasma

COC(=O)[C@H]1[C@@H](OC(=O)c2ccccc2)C[C@@H]2CC[C@H]1N2C [Cocaine, cocaine, reference compound]
Cmax (both, human, plasma, inhaled or intranasal, 160 mg, Cmax (Geometric mean), hepatic impairment, single intranasal 160 mg cocaine HCl): 41.2 ng/mL
Cmax (both, human, plasma, inhaled or intranasal, 160 mg, Cmax (Geometric mean), normal hepatic function, single intranasal 160 mg cocaine HCl): 44.2 ng/mL
Cmax (both, human, plasma, inhaled or intranasal, 160 mg, Cmax (Mean), hepatic impairment, single intranasal 160 mg cocaine HCl): 50.7 ng/mL
Cmax (both, human, plasma, inhaled or intranasal, 160 mg, Cmax (Mean), normal hepatic function, single intranasal 160 mg cocaine HCl): 50.6 ng/mL
Cmax (both, human, plasma, inhaled or intranasal, 160 mg, Cmax (Median), hepatic impairment, single intranasal 160 mg cocaine HCl): 42.6 ng/mL
Cmax (both, human, plasma, inhaled or intranasal, 160 mg, Cmax (Median), normal hepatic function, single intranasal 160 mg cocaine HCl): 53.6 ng/mL
Tmax (both, human, plasma, inhaled or intranasal, 160 mg, Tmax (Geometric mean), hepatic impairment, single intranasal 160 mg cocaine HCl): 0.828 h
Tmax (both, human, plasma, inhaled or intranasal, 160 mg, Tmax (Geometric mean), normal hepatic function, single intranasal 160 mg cocaine HCl): 0.422 h
Tmax (both, human, plasma, inhaled or intranasal, 160 mg, Tmax (Mean), hepatic impairment, single intranasal 160 mg cocaine HCl): 1.09 h
Tmax (both, human, plasma, inhaled or intranasal, 160 mg, Tmax (Mean), normal hepatic function, single intranasal 160 mg cocaine HCl): 0.431 h
Tmax (both, human, plasma, inhaled or intranasal, 160 mg, Tmax (Median), hepatic impairment, single intranasal 160 mg cocaine HCl): 0.75 h
Tmax (both, human, plasma, inhaled or intranasal, 160 mg, Tmax (Median), normal hepatic function, single intranasal 160 mg cocaine HCl): 0.5 h
half-life (both, human, plasma, inhaled or intranasal, 160 mg, t1/2 (Geometric mean), hepatic impairment, single intranasal 160 mg cocaine HCl): 4.99 h
half-life (both, human, plasma, inhaled or intranasal, 160 mg, t1/2 (Geometric mean), normal hepatic function, single intranasal 160 mg cocaine HCl): 6.62 h
half-life (both, human, plasma, inhaled or intranasal, 160 mg, t1/2 (Mean), hepatic impairment, single intranasal 160 mg cocaine HCl): 5.42 h
half-life (both, human, plasma, inhaled or intranasal, 160 mg, t1/2 (Mean), normal hepatic function, single intranasal 160 mg cocaine HCl): 8.11 h
half-life (both, human, plasma, inhaled or intranasal, 160 mg, t1/2 (Median), hepatic impairment, single intranasal 160 mg cocaine HCl): 5.63 h
half-life (both, human, plasma, inhaled or intranasal, 160 mg, t1/2 (Median), normal hepatic function, single intranasal 160 mg cocaine HCl): 6.93 h
AUC(0-inf) (both, human, plasma, other: intranasal (drug-soaked pledgets in the nasal cavity), 160 mg, AUCinf, range observed, hepatically impaired patients): 88 to 366 ng·h/mL
AUC(0-t) (both, human, plasma, other: intranasal (drug-soaked pledgets in the nasal cavity), 160 mg, Grade B hepatic impairment): 225 ng·h/mL
AUC(0-t) (both, human, plasma, other: intranasal (drug-soaked pledgets in the nasal cavity), 160 mg, Grade C hepatic impairment): 142 ng·h/mL
AUC(0-t) (both, human, plasma, other: intranasal (drug-soaked pledgets in the nasal cavity), 160 mg, Normal hepatic function): 79.2 ng·h/mL
Cmax (both, human, plasma, other: intranasal (drug-soaked pledgets in the nasal cavity), 160 mg, Cmax (Geometric Least Squares Mean, ANOVA), Grade B hepatic impairment, excludes one subject with anomalous concentration at 7 minutes): 46.4 ng/mL
Cmax (both, human, plasma, other: intranasal (drug-soaked pledgets in the nasal cavity), 160 mg, Cmax (Geometric Least Squares Mean, ANOVA), Grade C hepatic impairment): 30.1 ng/mL
Cmax (both, human, plasma, other: intranasal (drug-soaked pledgets in the nasal cavity), 160 mg, Cmax (Geometric Least Squares Mean, ANOVA), Normal hepatic function): 44.2 ng/mL
Cmax (both, human, plasma, other: intranasal (drug-soaked pledgets in the nasal cavity), 160 mg, Cmax, range observed, hepatically impaired patients): 16.2 to 85.2 ng/mL
Tmax (both, human, plasma, other: intranasal (drug-soaked pledgets in the nasal cavity), 160 mg, Tmax (approximate), normal hepatic function, plasma): ~0.5 h
Tmax (both, human, plasma, other: intranasal (drug-soaked pledgets in the nasal cavity), 160 mg, Tmax, range observed, hepatically impaired patients): 0.306 to 1.87 h
plasma exposure after Tmax, times higher than normal hepatic function (hepatic impairment group): about 2.5 times
AUC0→t (Max) [1]: 523 ng·h/mL
AUC0→t (Min) [1]: 89.5 ng·h/mL
AUC0→∞ (Max) [1]: 528 ng·h/mL
AUC0→∞ (Min) [1]: 90.9 ng·h/mL
Clast (Geometric mean) [1]: 0.270 ng/mL
Clast (Max) [1]: 1.73 ng/mL
Clast (Mean) [1]: 0.393 ng/mL
Clast (Median) [1]: 0.211 ng/mL
Clast (Min) [1]: 0.115 ng/mL
Cmax (Max) [1]: 119 ng/mL
Cmax (Min) [1]: 17.1 ng/mL
Tlast (Geometric mean) [1]: 31.6 h
Tlast (Max) [1]: 32.0 h
Tlast (Mean) [1]: 31.6 h
Tlast (Median) [1]: 32.0 h
Tlast (Min) [1]: 1680 min
Tmax (Max) [1]: 3.00 h
Tmax (Min) [1]: 7.02 min
t1/2 (Geometric mean) [1]: 4.94 h
t1/2 (Max) [1]: 9.86 h
t1/2 (Min) [1]: 87.6 min
AUC0→t (Max) [2]: 235 ng·h/mL
AUC0→t (Min) [2]: 20.0 ng·h/mL
AUC0→∞ (Max) [2]: 237 ng·h/mL
AUC0→∞ (Min) [2]: 21.7 ng·h/mL
Clast (Geometric mean) [2]: 0.188 ng/mL
Clast (Max) [2]: 0.405 ng/mL
Clast (Mean) [2]: 0.210 ng/mL
Clast (Median) [2]: 0.160 ng/mL
Clast (Min) [2]: 0.102 ng/mL
Cmax (Max) [2]: 75.2 ng/mL
Cmax (Min) [2]: 7.64 ng/mL
Tlast (Geometric mean) [2]: 24.7 h
Tlast (Max) [2]: 32.0 h
Tlast (Mean) [2]: 26.0 h
Tlast (Median) [2]: 28.0 h
Tlast (Min) [2]: 720 min
t1/2 (Max) [2]: 22.5 h
t1/2 (Min) [2]: 110 min
